# Results from patent US7205299B2, “Indole derivatives having an apoptosis-inducing effect” (Zentaris GmbH, priority 2003, dated 2007).
# Several values for one entry are separate records, joined by “and”; a condition that tells them apart may be missing. Identical values can stand only once.
# Legend:
# U-937 cell line = assay: CDDplus nucleosome ELISA test (apoptosis); type: cell-based; settings: U-937, 1 nM–10 μM, 24 h of treatment
# Description: Nuclear fragmentation is a late consequence of apoptotic processes. The changes which can be observed in this connection can be attributed to DNA strands being cleaved by endonucleases and the fragmentation into nucleosome particles which results therefrom.
# For this, the effects of compounds 1 and 2 on the U-937 cell line were investigated at different concentrations (1 nM–10 μM; 24 h of treatment). (See FIG. 5 and FIG. 6).
# [1] = Saturation solubility in water; type: physicochemical; settings: thermodynamic from solid, maximum of 1% DMSO, HPLC-UV
# Description: A maximum of 1% DMSO was added for the purpose of solubilizing the substances and improving the wetting of the samples. An HPLC-UV method was used for checking the content.
# [2] = molecular target: human DNA topoisomerase II (Homo sapiens, UniProt P11388); assay: kDNA assay for testing topoisomerase II activity; type: biochemical; settings: compound 1 at 100, 31.6 and 10 μM; reference compounds 100 μM
# Description: In this assay, which was described by P. Arimondo (Anti-Cancer Drug Design 2000, 15(6), 413–421), kDNA is treated with human DNA topoisomerase II in the absence or presence of the test compounds. In the assay, compound 1 according to the invention was tested at three different concentrations (100, 31.6 and 10 μM). A positive control and the reference compounds m-amsacrine (m-amsa), paclitaxel (Taxol) and vincristine, with the concentration in each case being 100 μM, were used for comparison.
# 2 μL of 10× assay buffer, 1 μL of kDNA (200 ng), 0.5 μL of human topoisomerase II (1 unit) and 15.5 μL of H2O are added by pipette to 1 μL of initially introduced test substance (20 times concentrated in 100% DMSO) and the reagents are mixed.
# The reaction assay samples are placed in a heating block which has been preheated to 37° C. and incubated at 37° C. for 10 min. The incubation is stopped after adding 4 μL of 5× Stop buffer and the substance is subsequently extracted with CIA. After that, 20 μL of the supernatant are loaded onto a 1% agarose gel containing 0.25 μg of ethidium bromide/mL and separated at 100 V for 1 h. Finally, the gel is photographed under UV excitation (see FIG. 1). The inhibition of the decatenation of kDNA is quantified using the GelPro® Analyzer Software (see FIG. 2).
# human topoisomerase II = human topoisomerase II (Homo sapiens, UniProt P11388); assay: pRYG relaxation assay for testing topoisomerase II activity; type: biochemical; settings: compound 1 at 100, 31.6 and 10 μM; reference compounds 316 and 100 μM
# Description: In the assay, the compound 1 according to the invention was tested at three different concentrations (100, 31.6 and 10 μM). The reference compounds m-amsacrine, paclitaxel (Taxol) and vincristine were used, at concentrations of 316 and 100 μM, for comparison.
# 2 μL of 10× assay buffer, 0.5 μL of pRYG DNA (125 ng), 0.5 μL of human topoisomerase II (1 unit) and 16 μL of H2O are added by pipette to 1 μL of initially introduced test substance (20 times concentrated in 100% DMSO) and the reagents are mixed. The reaction assay samples are placed in a heating block which has been preheated to 37° C. and incubated at 37° C. for 30 min. The incubation is stopped after adding 4 μL of 5× Stop buffer. After that, 10 μL of the assay sample are loaded onto a 1.2% agarose gel containing 0.25 μg of ethidium bromide/mL and separated at 100 V for 2.5 h. Finally, the gel is photographed under UV excitation (see FIG. 3). The inhibition of pRYG relaxation is quantified using the GelPro® Analyzer Software (see FIG. 4).
# bovine tubulin = bovine tubulin (Bos taurus, UniProt P81947+Q6B856); assay: Inhibition of tubulin polymerization; type: biochemical; settings: summary of Table 3
# Description: Substances 1, 4, 9, 11, 12, 13 and 15 were tested for their ability to inhibit the polymerization of bovine tubulin in an in-vitro test (D. M. Bollag et al. Cancer Res. 1995, 55, 2325–2333). This test uses-tubulin which has been purified by cycles of polymerization and depolymerization and which is caused to polymerize by adding GTP and heating it. Table 3 gives the EC50 values causing inhibition of the polymerization of tubulin containing 30% associated proteins (MPAs).
# mammary gland, MAXF857 = assay: Human xenograft model, mammary gland MAXF857; type: in vivo
# Excerpt: The in-vivo activity and tolerability of compound 2 according to the invention, as compared with those of substance 10, were examined in another human xenograft model (mammary gland, MAXF857).
# melanoma, MEXF-462 = assay: Human xenograft model, melanoma MEXF-462; type: in vivo; settings: for tolerability (in words): MEXF462 xenograft, p.o.
# Excerpt: The in-vivo activity and tolerability of compound 2 according to the invention, as compared with those of substances 10 and 14, were examined in a human xenograft model (melanoma, MEXF-462).
# [3] = tested on: resistant line L1210/mdr (L1210VCR); assay: XTT proliferation assay, L1210VCR; type: cell-based, murine; settings: Mus musculus
# Excerpt: (§1) For further characterization, substances 1, 2, 4 and 11 were investigated with regard to their effect on mulitdrug-resistance cell lines as compared with that on nonresistant wild-type cell lines.
# (§2) The cell lines which were investigated are the murine cell line L1210, the acute myeloid leukemia cell line LT12 and the resistant lines L1210/mdr and LT12/mdr. The murine cell line P388 (methylcholanthrene-induced lymphoid neoplasm) and doxorubicin-resistant P388 were also included as test systems.
# (§3) The test results are summarized in Table 2 below: • XTT proliferation assay, EC50 in μg/ml
# murine cell line P388 = assay: XTT proliferation assay, P388; type: cell-based; settings: Mus musculus
# Excerpt: as §1, §2, §3
# resistant line LT12/mdr = assay: XTT proliferation assay, LT12/mdr; type: cell-based; settings: Rattus norvegicus, LT12mdr
# Excerpt: as §1, §2, §3
# [4] = tested on: doxorubicin-resistant P388; assay: XTT proliferation assay, P388ADR; type: cell-based, murine; settings: Mus musculus
# Excerpt: as §1, §2, §3
# [5] = tested on: acute myeloid leukemia cell line LT12; assay: XTT proliferation assay, LT12; type: cell-based; settings: Rattus norvegicus
# Excerpt: as §1, §2, §3
# murine cell line L1210 = assay: XTT proliferation assay, L1210; type: cell-based; settings: Mus musculus
# Excerpt: as §1, §2, §3
# Sequence of bovine tubulin (P81947 whole entry): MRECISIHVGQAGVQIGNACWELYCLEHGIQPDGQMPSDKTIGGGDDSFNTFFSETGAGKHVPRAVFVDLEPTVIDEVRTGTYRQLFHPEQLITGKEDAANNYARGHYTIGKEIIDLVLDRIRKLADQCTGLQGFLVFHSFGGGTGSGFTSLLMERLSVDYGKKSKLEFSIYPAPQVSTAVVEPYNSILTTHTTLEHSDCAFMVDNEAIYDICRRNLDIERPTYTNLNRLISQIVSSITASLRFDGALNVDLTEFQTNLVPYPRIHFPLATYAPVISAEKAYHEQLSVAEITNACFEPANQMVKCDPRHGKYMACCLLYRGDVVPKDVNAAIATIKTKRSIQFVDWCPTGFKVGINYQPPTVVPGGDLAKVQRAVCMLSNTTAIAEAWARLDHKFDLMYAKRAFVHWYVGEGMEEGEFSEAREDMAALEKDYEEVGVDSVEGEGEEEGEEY
# Sequence of bovine tubulin (Q6B856 whole entry): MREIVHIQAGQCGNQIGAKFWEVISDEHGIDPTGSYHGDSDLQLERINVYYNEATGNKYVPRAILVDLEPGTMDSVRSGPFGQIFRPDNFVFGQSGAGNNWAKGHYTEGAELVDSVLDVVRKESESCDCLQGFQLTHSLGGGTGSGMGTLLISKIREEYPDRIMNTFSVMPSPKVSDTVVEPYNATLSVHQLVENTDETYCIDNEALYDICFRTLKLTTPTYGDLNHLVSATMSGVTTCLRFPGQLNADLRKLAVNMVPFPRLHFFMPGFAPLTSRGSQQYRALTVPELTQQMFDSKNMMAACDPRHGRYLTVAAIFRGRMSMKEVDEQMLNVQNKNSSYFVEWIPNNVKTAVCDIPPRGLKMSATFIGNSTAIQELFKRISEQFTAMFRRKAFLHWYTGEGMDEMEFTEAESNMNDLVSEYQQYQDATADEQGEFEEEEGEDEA
# Sequence of human topoisomerase II (P11388 whole entry): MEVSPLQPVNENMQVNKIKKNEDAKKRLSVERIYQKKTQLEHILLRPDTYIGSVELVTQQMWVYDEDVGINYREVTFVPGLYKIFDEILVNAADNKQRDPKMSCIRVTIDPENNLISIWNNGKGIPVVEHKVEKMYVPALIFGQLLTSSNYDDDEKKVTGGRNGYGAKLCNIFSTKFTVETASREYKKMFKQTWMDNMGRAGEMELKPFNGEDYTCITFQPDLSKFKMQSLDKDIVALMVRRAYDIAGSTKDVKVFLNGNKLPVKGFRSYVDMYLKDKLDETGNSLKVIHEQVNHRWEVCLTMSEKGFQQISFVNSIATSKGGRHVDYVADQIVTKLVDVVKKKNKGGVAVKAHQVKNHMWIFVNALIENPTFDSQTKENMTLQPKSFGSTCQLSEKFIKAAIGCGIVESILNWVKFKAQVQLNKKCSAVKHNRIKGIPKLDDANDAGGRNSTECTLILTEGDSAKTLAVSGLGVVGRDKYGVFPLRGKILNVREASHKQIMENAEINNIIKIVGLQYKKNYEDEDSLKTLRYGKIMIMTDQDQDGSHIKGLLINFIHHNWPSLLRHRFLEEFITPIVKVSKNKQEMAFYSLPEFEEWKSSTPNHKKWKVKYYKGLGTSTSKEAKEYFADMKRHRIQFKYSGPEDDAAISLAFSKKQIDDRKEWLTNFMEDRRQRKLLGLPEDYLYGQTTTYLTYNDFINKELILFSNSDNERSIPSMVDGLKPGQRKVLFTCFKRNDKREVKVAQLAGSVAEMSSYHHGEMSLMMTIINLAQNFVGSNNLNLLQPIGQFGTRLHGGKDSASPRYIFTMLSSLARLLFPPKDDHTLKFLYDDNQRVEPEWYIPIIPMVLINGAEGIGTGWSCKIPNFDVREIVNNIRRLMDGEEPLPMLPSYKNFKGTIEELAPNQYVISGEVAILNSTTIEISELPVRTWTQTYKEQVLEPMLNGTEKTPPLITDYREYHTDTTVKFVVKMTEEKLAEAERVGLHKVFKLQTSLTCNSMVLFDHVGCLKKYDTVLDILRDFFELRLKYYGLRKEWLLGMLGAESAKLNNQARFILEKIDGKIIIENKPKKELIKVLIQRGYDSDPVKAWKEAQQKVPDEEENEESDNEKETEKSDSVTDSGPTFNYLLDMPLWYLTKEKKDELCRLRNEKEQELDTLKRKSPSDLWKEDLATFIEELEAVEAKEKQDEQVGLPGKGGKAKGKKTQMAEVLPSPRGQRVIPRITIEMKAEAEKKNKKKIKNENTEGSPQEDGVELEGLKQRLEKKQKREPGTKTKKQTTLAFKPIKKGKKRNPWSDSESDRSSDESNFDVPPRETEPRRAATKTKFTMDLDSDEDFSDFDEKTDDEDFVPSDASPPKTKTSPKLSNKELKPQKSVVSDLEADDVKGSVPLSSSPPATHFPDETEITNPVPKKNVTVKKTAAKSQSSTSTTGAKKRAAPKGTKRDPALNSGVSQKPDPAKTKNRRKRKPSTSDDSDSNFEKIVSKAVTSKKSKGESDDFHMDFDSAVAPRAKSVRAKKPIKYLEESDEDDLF
# Sequence of human DNA topoisomerase II (P11388 whole entry): as above
structure (smiles),measurement,setting,value
"O=C(Nc1cnc2nccnc2c1)C(=O)c1cn(Cc2ccc(Cl)cc2)c2ccccc12 [Compound 1, 2-[1-(4-chlorobenzyl)-1H-indol-3-yl]-2-oxo-N-pyrido[2,3-b]pyrazin-7-ylacetamide]",nucleosomes in the cell culture supernatant,U-937 cell line,not possible to demonstrate any significant increase
same,nucleosomes in the cell lysate,U-937 cell line,concentration-dependent increase of nucleosomes in the cell lysate
same,solubility,[1],25 µg/mL
same,"inhibition of topoisomerase II, kDNA decatenation",[2],significantly inhibit topoisomerase II
same,"inhibition of topoisomerase II, pRYG DNA relaxation",human topoisomerase II,significantly inhibit topoisomerase II
same,inhibitory effect on tubulin polymerization (in words),bovine tubulin,very potent inhibitory effect
"CC(=O)N(C(=O)C(=O)c1cn(Cc2ccc(Cl)cc2)c2ccccc12)c1ccc2ncccc2c1 [Compound 2, N-{2-[1-(4-chlorobenzyl)-1H-indol-3-yl]-2-oxoacetyl}-N-quinolin-6-ylacetamide]",Deaths n (dead animals / total number),"mammary gland, MAXF857; MAXF857, 80 mg/kg p.o.",0/6 mice
same,Optimum T/C % (day),"mammary gland, MAXF857; MAXF857, 80 mg/kg p.o., day 10",9.6% (10)
same,nucleosomes in the cell culture supernatant,U-937 cell line,not possible to demonstrate any significant increase
same,nucleosomes in the cell lysate,U-937 cell line,concentration-dependent increase of nucleosomes in the cell lysate
same,solubility,[1],28.5 µg/mL
same,Deaths n (dead animals / total number),"melanoma, MEXF-462; MEXF462, 80 mg/kg p.o.",0/6 mice
same,remission of the tumors,"melanoma, MEXF-462; MEXF462, 80 mg/kg p.o., 6 animals",complete remission of the tumors in the treated animals
same,Optimum T/C % (day),"melanoma, MEXF-462; MEXF462, 80 mg/kg p.o., day 18",0.0% (18)
same,tolerability (in words),"melanoma, MEXF-462",very well tolerated (no deaths)
"O=C(Nc1ccc2[nH]ncc2c1)C(=O)c1cn(Cc2ccc(Cl)cc2)c2ccccc12 [Compound 4, 2-[1-(4-chlorobenzyl)-1H-indol-3-yl]-N-(1H-indazol-5-yl)-2-oxoacetamide]",melting point,,203 °C
same,inhibitory effect on tubulin polymerization (in words),bovine tubulin,very potent inhibitory effect
"Cc1ccc2cc(NC(=O)C(=O)c3cn(Cc4ccc(Cl)cc4)c4ccccc34)ccc2n1 [Compound 9, 2-[1-(4-chlorobenzyl)-1H-indol-3-yl]-N-(2-methylquinolin-6-yl)-2-oxoacetamide]",inhibitory effect on tubulin polymerization (in words),bovine tubulin,very potent inhibitory effect
"O=C(Nc1ccc2ncccc2c1)C(=O)c1cn(Cc2ccc(Cl)cc2)c2ccccc12 [Compound 10, 2-[1-(4-chlorobenzyl)-1H-indol-3-yl]-2-oxo-N-quinolin-6-ylacetamide]",Deaths n (dead animals / total number),"mammary gland, MAXF857; MAXF857, 40 mg/kg p.o.",2/6 and 2/6 mice
same,tolerability (in words),"mammary gland, MAXF857; MAXF857 xenograft, p.o.",substantially less well tolerated than 2
same,solubility,[1],0.038 µg/mL
same,Deaths n (dead animals / total number),"melanoma, MEXF-462; MEXF462, 55 mg/kg p.o.",2/6 mice
same,Deaths n (dead animals / total number),"melanoma, MEXF-462; MEXF462, 70 mg/kg p.o.",5/6 mice
same,tolerability (in words),"melanoma, MEXF-462",less well tolerated
"O=C(Nc1cccc2cccnc12)C(=O)c1cn(Cc2ccc(Cl)cc2)c2ccccc12 [Compound 12, 2-[1-(4-chlorobenzyl)-1H-indol-3-yl]-2-oxo-N-quinolin-8-ylacetamide]",melting point,,178 °C
same,inhibitory effect on tubulin polymerization (in words),bovine tubulin,do not exert any effect
"O=C(Nc1ccncc1)C(=O)c1cn(Cc2ccc(Cl)cc2)c2ccccc12 [Compound 14, 2-[1-(4-chlorobenzyl)-1H-indol-3-yl]-2-oxo-N-pyridin-4-ylacetamide]",solubility,[1],0.35 µg/mL
same,Deaths n (dead animals / total number),"melanoma, MEXF-462; MEXF462, 16 mg/kg p.o.",3/5 mice
same,Deaths n (dead animals / total number),"melanoma, MEXF-462; MEXF462, 32 mg/kg p.o.",3/5 mice
same,tolerability (in words),"melanoma, MEXF-462",less well tolerated
"Cc1ccc2cccc(NC(=O)C(=O)c3cn(Cc4ccc(F)cc4)c4ccccc34)c2n1 [Compound 15, 2-[1-(4-fluorobenzyl)-1H-indol-3-yl]-N-(2-methylquinolin-8-yl)-2-oxoacetamide]",melting point,,200 to 202 °C
same,inhibitory effect on tubulin polymerization (in words),bovine tubulin,do not exert any effect
"COc1cccc2c1C(=O)c1c(O)c3c(c(O)c1C2=O)C[C@@](O)(C(=O)CO)C[C@@H]3O[C@H]1C[C@H](N)[C@H](O)[C@H](C)O1 [Doxorubicin, doxorubicin]",EC50,[3],> 3.16 µg/mL
same,EC50,murine cell line P388,0.204 µg/mL
same,EC50,resistant line LT12/mdr,> 3.16 µg/mL
same,EC50,[4],> 3.16 µg/mL
same,EC50,[5],0.029 µg/mL
same,EC50,murine cell line L1210,0.269 µg/mL
"COc1cc([C@@H]2c3cc4c(cc3[C@@H](O[C@@H]3O[C@@H]5CO[C@@H](C)O[C@H]5[C@H](O)[C@H]3O)[C@H]3COC(=O)[C@H]23)OCO4)cc(OC)c1O [Etoposide, etoposide]",EC50,[3],> 3.16 µg/mL
same,EC50,murine cell line P388,0.202 µg/mL
same,EC50,resistant line LT12/mdr,> 3.6 µg/mL
same,EC50,[4],> 3.16 µg/mL
same,EC50,[5],0.094 µg/mL
same,EC50,murine cell line L1210,0.269 µg/mL
"CC[C@]1(O)C[C@H]2CN(CCc3c([nH]c4ccccc34)[C@@](C(=O)OC)(c3cc4c(cc3OC)N(C=O)[C@H]3[C@@](O)(C(=O)OC)[C@H](OC(C)=O)[C@]5(CC)C=CCN6CC[C@]43[C@@H]65)C2)C1 [Vincristine, vincristine]",EC50,[3],> 3.16 µg/mL
same,EC50,murine cell line P388,0.004 µg/mL
same,EC50,resistant line LT12/mdr,0.134 µg/mL
same,EC50,[4],0.93 µg/mL
same,EC50,[5],0.002 µg/mL
same,"inhibition of topoisomerase II, kDNA decatenation",[2],neither paclitaxel nor vincristine was observed to have any inhibitory effects
same,"inhibition of topoisomerase II, pRYG DNA relaxation",human topoisomerase II,neither paclitaxel nor vincristine was observed to have any inhibitory effects
same,EC50,murine cell line L1210,0.015 µg/mL
